In ChEMBL document CHEMBL5532652, “Design and synthesis of pterostilbene derivatives bearing triazole moiety that might treat DSS-induced colitis in mice through modulation of NF-κB/MAPK signaling pathways” (Eur J Med Chem, 2024):
Activity calls are given as the source filed them. The calls are words filed in the database; no cut-off is given here.

Columns and labels:
[1] = Acute toxicity in C57BL/6 mouse assessed as liver damage at 1000 mg/kg, po measured for 14 days; assay type: organism-based; details: in vivo, 336 h, time 14 day
[2] = Acute toxicity in male C57BL/6 mouse assessed as anorexia at 1000 to 2000 mg/kg, po measured for 14 days; assay type: organism-based; details: in vivo, 336 h, dose 1000-2000 mg/kg, time 14 day
Mus musculus [3] = test: Anti-inflammatory activity against DSS-induced acute colitis C57BL/6J mouse model assessed as reduction in IL-1beta level in colon at 10 to 20 mg/kg, po measured for 7 days by ELISA analysis; assay type: functional, organism-based; details: dose 10-20 mg/kg, time 7.0 day
RAW264.7 [4] = test: Anti-inflammatory activity against LPS-stimulated mouse RAW264.7 cells assessed as downregulation of LPS-induced iNOS expression at 0.5 to 2 uM preincubated with compound for 1 hr followed by LPS stimulation and measured after 24 hrs by Western blot analysis; assay type: functional, cell-based; details: dose 0.5-2 µM, time 25.0 hrs
[5] = Acute toxicity in female C57BL/6 mouse assessed as lethargy at 1000 to 2000 mg/kg, po measured for 14 days; assay type: organism-based; details: in vivo, 336 h, dose 1000-2000 mg/kg, time 14 day
RAW264.7 [6] = test: Anti-inflammatory activity in LPS-stimulated mouse RAW264.7 cells assessed as inhibition of p38 phosphorylation preincubated with compound for 1 hr followed by LPS stimulation and measured after 30 mins by Western blot analysis; assay type: functional, cell-based; details: dose 0.5-2 µM, time 1.5 hrs
Mus musculus [7] = test: Anti-inflammatory activity against DSS-induced acute colitis C57BL/6J mouse model assessed as decrease in neutrophil infiltration in colon at 10 to 20 mg/kg, po measured for 7 days; assay type: functional, organism-based; details: dose 10-20 mg/kg, time 7.0 day
RAW264.7 [8] = test: Anti-inflammatory activity against LPS-stimulated mouse RAW264.7 cells assessed as reduction in LPS-induced iNOS level preincubated with compound for 1 hr followed by LPS stimulation and measured after 24 hrs by Western blot analysis; assay type: functional, cell-based; details: dose 0.5-2 µM, time 25.0 hrs
RAW264.7 [9] = test: Anti-inflammatory activity in LPS-stimulated mouse RAW264.7 cells assessed as reduction in p38 level at 0.5 to 2 uM preincubated with compound for 1 hr followed by LPS stimulation and measured after 30 mins by Western blot analysis; assay type: functional, cell-based; details: dose 0.5-2 µM, time 1.5 hrs
[10] = Acute toxicity in C57BL/6 mouse assessed as lung damage at 1000 mg/kg, po measured for 14 days; assay type: organism-based; details: in vivo, 336 h, time 14 day

C=CCOc1ccc(/C=C/c2cc(OC)cc(OC)c2-c2cnnn2C(=O)NCCCl)cc1
Activity [1]: Non-Toxic | Activity [2]: Non-Toxic | Activity (Mus musculus [3]): Active | Activity (RAW264.7 [4]): Active | Activity [5]: Non-Toxic | Activity (RAW264.7 [6]): Dose-Dependent Effect | Activity (Mus musculus [7]): Active | Activity (RAW264.7 [8]): Dose-Dependent Effect | Activity (RAW264.7 [9]): Active | Activity [10]: Non-Toxic
